In patent publication US20250281449A1, “NITROGEN-CONTAINING ANALOGS OF SALINOMYCIN FOR USE IN MULTIPLE MYELOMA (MM)” (Centre National de la Recherche Scientifique, priority 2021, published 2025):

How the values were obtained:
Type in all cases: cell-based, human
[1] = tested on: pan-caspase, caspase3/7 and caspase 9 activity in OPM-2 cells; test: Caspase activity by luminometry; settings: OPM-2, 48H
Procedure: OPM-2 cells were treated as indicated during 48H and pan-caspase, caspase3/7 and caspase 9 activity were measured by luminometry. 4-OH-cyclophosphamide (80 μM) was used as a positive control (C).

[2] = tested on: MMSET (isoforms I and II); test: Western blot of MMSET protein level; settings: MM cell lines with t(4; 14) translocation, 24H
Procedure: Cells were treated with iron chelators (80 μM Deferasirox), and Ironomycin (IC50 and 200 nM) during 24H. Protein levels of MMSET (isoforms I and II), MYC, H3K36me3 and H3K27me3 were analyzed by western blot. MMSET (isoforms I and II) and MYC signal were normalized by α-tubulin protein level, H3K36me3 and H3K27me3 signal were normalized by total histone 3 protein level.
(§1) The total cell lysates were obtained with RIPA 1× lysis buffer (#9806, Cell Signaling®) according with the supplier recommendations.
(§2) Protein lysates migrate on 10% polyacrylamide gel (NP-0301, Novex, Life Technologies®), in MOPS 1× running buffer (NP0001, Novex, Life Technologies®) or MES 1× running buffer NP-0002, Novex, Life Technologies®) and proteins are transferred to nitrocellulose membrane (1B301001, I-Blot Transfert Starck, NuPAGE, Life Technologies®). The primary antibodies mouse-anti-phospho-Histone H2A.X (Ser139) clone JBW301 ( 1/1000, Merck Millipore), anti-H3K36me3 (#ab9050, abcam®), anti-H3K27me3 (#9733, Cell Signaling®), anti-MMSET (#65127, Cell Signaling® et ab75359, abcam), anti-MYC (#5605, Cell Signaling®) were incubated in TBS-Tween 20 0.1% (Tris-Buffered Saline, pH 7.4) with 5% non-fat milk or Bovine serum albumin (Sigma-Aldrich, A7906). […] Quantification of protein levels was performed with Image J® software (National Institutes of Health, Bethesda, MD, USA).

[3] = tested on: primary MM cells; test: Assay on primary MM cells of patients (flow cytometry); settings: n=5, with IL-6
Procedure: Primary MM cells were treated with Ironomycin (A) or AM-23 (B) and incubated during 96H with IL-6. The toxicity on MM cells and non-MM cells was analyzed by flow cytometry and expressed in % of control.
Bone marrow samples were collected after patients' written informed consent in accordance with the Declaration of Helsinki and institutional research board approval from Montpellier University hospital. Cells are obtained from […] of 5 patients with MM. Cells are obtained by density gradient separation and qualified by Flow cytometry.
Cells are cultured in Gibco® RPMI-1640 (Glutamax) medium (#6187-010) with 10% FBS at a density of 0.5×10^6 Cell/mL with 2 ng/mL of interleukin-6. Cells are seeded 24H after thawing and treated with various compounds during 72H.
Total cells were counted with trypan blue and stained with the panel CD38-APC, CD138-PE (Beckman coulter) and analyzed by flow cytometry (Fortessa cytometer, BD Pharmigen). Tumorous MM cells were gated on CD38+ and CD138+.

[4] = tested on: Phospho-H2A.X (S139); test: DNA damage response, Phospho-H2A.X (S139) western blot; settings: IC50 and 200 nM, 24H
Procedure: Cells were treated with iron chelators (80 μM Deferasirox), and Ironomycin (IC50 and 200 nM) during 24H. Protein levels of Phospho-H2A.X (S139) were analyzed by western blot and normalized by the histone 3 protein level.
as §1
as §2, with “A7906). Protein levels are objectified by labeling with an anti-α-tubulin mouse monoclonal antibody (Sigma, T9026, St Louis, MO, USA 1/1000) or anti-Histone 3 (ab18521, abcam).” for “A7906).”

[5] = tested on: XG2 melphalan resistant (XG2 Melph R) cell line; test: Drug combination concentration matrix, viability by ATP quantification, Bliss synergy; settings: melphalan resistant cell line XG2 MeIR, 96 h
Procedure: XG-7 or XG2 WT (XG2 neg) or XG2 melphalan resistant (XG2 Melph R) cell lines were respectively treated with increasing concentrations of ironomycin combined with melphalan during 96 h and cell viability was tested by ATP quantification to obtain the viability matrix. The synergy matrix was calculated as described in Material and Methods.
HMCL cell lines were cultured for 4 days in 96-well flat-bottom microtiter plates in RPMI 1640 medium or DMEM medium, 10% or 20% FCS (control medium) in the presence of various compounds. The number of viable cells in culture was determined using the Cell Titer-Glo Luminescent Cell Viability Assay from Promega, Madison, WI, USA using a Centro LB 960 luminometer (Berthold Technologies, Bad Wildbad, Germany).
The interaction between the drugs tested in vitro was investigated with a concentration matrix test, in which increasing concentration of each single drug were assessed with all possible combinations of the other drugs. For each combination, the percentage of expected growing cells in the case of effect independence was calculated according to the Bliss equation (Combes et al., 2019): […]
where fuC is the expected fraction of cells unaffected by the drug combination in the case of effect independence, and fuA and fuB are the fractions of cells unaffected by treatment A and B, respectively. […]

[6] = tested on: XG-1, XG-7 and OPM-2 cell lines; test: Apoptosis induction (Annexin V staining or PARP-cleavage, flow cytometry); settings: IC50 of ironomycin, 72H
Procedure: XG-1, XG-7 and OPM-2 cell lines were treated with IC50 of ironomycin during 72H. Apoptosis induction was monitored by Annexin V staining (XG-1 and XG-7) or PARP-cleavage and analyzed by flow cytometry (A).
Annexin V-PE staining for apoptosis analysis was performed using the “PE Annexin V Apoptosis Detection Kit I” (559763, Becton Dickinson).
The cell cycle progression was studied by flow cytometry using the Apoptosis, DNA Damage, and Cell Proliferation Kit (562253, Becton Dickinson). Briefly, cells were labeled with bromodeoxyuridine (BrdU), an analog of the DNA precursor thymidine that can be incorporated into newly synthesized DNA and detected with an antibody against BrdU to measure cell proliferation. After this labeling, the cells were fixed, permeabilized and treated with DNase to expose the BrdU epitopes. Following this treatment, cells were simultaneously stained with fluorochrome-labeled anti-BrdU, anti-cleaved Poly A DP-ribose polymerase 1 (PARP), anti-H2AX phosphorylated at serine 139. They were also stained with DAPI to determine DNA content. Finally, cells were resuspended in staining buffer and analyzed by flow cytometry (Fortessa, Becton Dickinson).

Structure (SMILES): C#CCN[C@@H]1C=C[C@]2(O[C@H]([C@@H](CC)C(=O)[C@@H](C)[C@@H](O)[C@H](C)[C@@H]3O[C@@H]([C@@H](CC)C(=O)O)CC[C@@H]3C)[C@@H](C)C[C@H]2C)O[C@@]12CC[C@@](C)([C@H]1CC[C@](O)(CC)[C@H](C)O1)O2 [Ironomycin]
- caspase activation [1]: activation of caspases 3/7 and 9
- expression of MMSET [2]: downregulates the expression of MMSET
- toxicity on primary MM cells of patients [3]: validated the therapeutic interest
- DNA double strand breaks [4]: DNA double strand breaks
- interaction effect, combined with melphalan [5]: remains synergistic
- apoptosis induction [6]: induces apoptosis
